Square brackets hold non-standard residues; d marks the D form. Peptide text beside a SMILES is read from it.
Assays:
Solubility of D-peptides = settings: PBS pH 7.4, 1 h at 37 °C, 20,800×g centrifugation, UV–vis absorption; lyophilized chloride salt
small α-syn PFF seeds = experiment: Protein quantification after centrifugation (precipitation of small α-syn PFF); assay type: physicochemical; settings: as DLS samples (200 nM PFF + 500 nM SVD-1a), 0, 20, 72 h at 37 °C, centrifuged 21,000×g 30 min, Micro-BCA, n = 3
Description: Measurements were performed using a SpectroSize 300 131 (XtalConcepts, GE) instrument and a sample volume of 1 ml in a sealed quartz cuvette (Hellma Group, GE). Samples were incubated in PBS pH 7.4 at 37 °C under quiescent conditions. Prior to measurements, all samples were centrifuged at 21,000×g for 30 min at 4 °C to remove potential impurities from the solution. For time-dependent DLS measurements, data points were recorded every 60 s. Diffusion coefficients were obtained from analysis of the decay of the scattered intensity autocorrelation function and were used to determine apparent hydrodynamic radii via the Stokes-Einstein equation. Kinetic fitting for the degradation of small α-syn PFF seeds was performed with the “SVD-1a + small α-syn PFF” sample using the “single-phase exponential decay function” of GraphPad Prism 10 (GraphPad Software Inc., USA), considering only particle sizes in the range of 1–100 nm with an amplitude > 0.2. […] Protein quantification after centrifugation was performed by incubating identical samples as in the DLS measurements with additional compound and buffer controls in low-binding reaction tubes at 37 °C under quiescent conditions (n = 3). […] Protein quantification of pellet and supernatant was performed using a Micro-BCA kit following the manufacturer’s instructions (Thermo Fisher Scientific, USA). […]

[1] = system: α-synA53T–YFP (HEK293T cells); experiment: Seeded intracellular aggregation in α-synA53T–YFP cells; assay type: cell-based, human; settings: day 3; for aggregate-positive cells: transfected, then 30 nM small α-syn PFF seeds
Text: Fig. 5 SVD-1a inhibits seeded α-syn aggregation in cells. To validate the inhibitory effect of SVD-1a in cells, we used the α-synA53T–YFP cell system, which stably expresses human α-syn with the familial A53T mutation fused to YFP in HEK293T cells and enables fluorescence-based detection of aggregates that show up as highly fluorescent spots within the cells, clearly above background, intracellularly after seeding with small α-syn PFF seeds. In order to avoid interference of the peptide with the uptake of small α-syn PFF seeds, we performed a two-step transfection starting with a first transfection of the peptide and a second transfection with PFFs. […] To quantify the number of cells with aggregates in our images and to avoid experimental bias, we used a fully automated algorithm for image analysis. […] One asterisk denotes p values < 0.05 and three asterisks a p value < 0.001. Error bars indicate standard deviation. […] Treatment with increasing concentrations of SVD-1a, here imaged at 25 µM, led to a concentration-dependent reduction in the number of cells with aggregates (H-J). Panels B, E, and H show nuclei stained with Hoechst 33342. Panels C, F, and I show αSynA53T–YFP fluorescence. Panels D, G, and J show merged images. The scale bar in J represents 100 µm and applies to all panels. The viability of the cells was not reduced by transfection with seeds or in SVD-1a, as shown in Supplementary Fig. 15. Confirmation that highly fluorescent aggregates contain α-syn is shown in Supplementary Fig. 14 by co-immunostaining with syn-211 antibody, anti-α-syn (phospho S129) antibody and 5G4 antibody.
A construct encoding full-length A53T-mutated human α-syn fused with YFP at the C-terminus was synthesized and introduced into the pMK–RQ expression vector (GeneArt; Thermo Fisher Scientific, USA). The α-synA53T–YFP construct was subcloned into the pIRESpuro3 vector (Clontech; Takara Bio, JPN) using NheI (5′) and NotI (3′) restriction sites. HEK293T cells (American Type Culture Collection) were cultured in high-glucose Dulbecco’s modified Eagle’s medium (DMEM; Sigma-Aldrich, USA) supplemented with 10% fetal calf serum (Sigma-Aldrich, USA), and 50 units/ml penicillin as well as 50 μg/ml streptomycin (Sigma-Aldrich, USA). Cells were cultured in a humidified atmosphere of 5% CO2 at 37 °C. Cells plated in DMEM were transfected using Lipofectamine 2000 (Invitrogen; Thermo Fisher Scientific, USA). Stable cells were selected in DMEM containing 1 μg/ml puromycin (EMD Millipore, USA). Monoclonal lines were generated by fluorescence-activated cell sorting of a polyclonal cell population in 96-well plates using a MoFlo XDP cell sorter (Beckman Coulter, USA). Finally, the clonal cell line B5 was selected from among 24 clonal cell lines and is referred to as αSynA53T–YFP cells. Peptides were incubated with 1.5% Lipofectamine 2000 in OptiMEM for 2 h at room temperature. […] On day 3 the cells were imaged with an IN Cell Analyzer 6500HS System (Cytiva, USA) using the blue and green fluorescence channel, and analyzed using IN Carta Image Analysis Software (Cytiva, USA) after an algorithm was established to identify intracellular aggregates in living cells. For each condition, we used four wells and took 16 images per well, which were analyzed by a fully automated algorithm to avoid bias. […]

| Structure (SMILES) | concentration completely retained in supernatant (Solubility of D-peptides) | precipitation of small α-syn PFF seeds (small α-syn PFF seeds) | aggregate-positive cells ([1]; 5 µM peptide) [%] | aggregate-positive cells ([1]; 25 µM peptide) [%] | inhibition of intracellular seeded α-syn aggregation ([1]; peptide transfection, then 30 nM PFF seeds) |
| --- | --- | --- | --- | --- | --- |
| CC[C@@H](C)[C@@H](NC(=O)[C@@H](Cc1c[nH]cn1)NC(=O)[C@@H](CCC(=O)O)NC(=O)[C@@H](CCC(N)=O)NC(=O)[C@@H](Cc1c[nH]c2ccccc12)NC(=O)[C@@H](Cc1ccc(O)cc1)NC(=O)[C@H](NC(=O)[C@@H](CCC(=O)O)NC(=O)[C@@H](Cc1c[nH]cn1)NC(=O)[C@H](NC(=O)[C@H]1CCCN1C(=O)[C@@H](CCSC)NC(=O)[C@H](N)CCCCN)[C@H](C)O)[C@H](C)O)C(=O)N[C@H](Cc1c[nH]c2ccccc12)C(=O)N[C@H](Cc1c[nH]cn1)C(=O)N[C@H](C)C(N)=O [SVD-1] (H-[dK][dM][dP][dT][dH][dE][dT][dY][dW][dQ][dE][dH][dI][dW][dH][dA]-NH2) | at least 1 mM |  |  |  |  |
| CC[C@@H](C)[C@@H](NC(=O)[C@@H](Cc1c[nH]cn1)NC(=O)[C@@H](CCC(=O)O)NC(=O)[C@@H](CCC(N)=O)NC(=O)[C@@H](Cc1c[nH]c2ccccc12)NC(=O)[C@@H](Cc1ccc(O)cc1)NC(=O)[C@H](NC(=O)[C@@H](CCC(=O)O)NC(=O)[C@@H](Cc1c[nH]cn1)NC(=O)[C@H](NC(=O)[C@H]1CCCN1C(=O)[C@@H](CC(C)C)NC(=O)[C@H](N)CCCNC(=N)N)[C@H](C)O)[C@H](C)O)C(=O)N[C@H](Cc1c[nH]c2ccccc12)C(=O)N[C@H](Cc1c[nH]cn1)C(=O)N[C@H](C)C(=O)N[C@H](CCCNC(=N)N)C(=O)N[C@H](CCCNC(=N)N)C(=O)N[C@H](CCCNC(=N)N)C(=O)N[C@H](CCCNC(=N)N)C(=O)N[C@H](CCCNC(=N)N)C(N)=O [SVD-1a] (H-[dR][dL][dP][dT][dH][dE][dT][dY][dW][dQ][dE][dH][dI][dW][dH][dA][dR][dR][dR][dR][dR]-NH2) |  | did not lead to precipitation of these species | 64 | 57 | inhibited α-syn aggregation in αSynA53T–YFP cells in a dose-dependent manner |
